Experimental data reported in US9006242B2, “Substituted benzene compounds” (Epizyme, Inc., priority 2012, dated 2015).
Like-named read-outs stand apart in the source and are kept apart here.

How the values were obtained:
CYP2C19 = CYP2C19 (Homo sapiens (Human), UniProt P33261); conditions: read-out: Reversible inhibition IC50 CYP2C19; human liver microsomes
CYP1A [1] = experiment: in vitro; conditions: human, pooled human liver microsomes, pH 7.4
CYP3A4/5 [2] = experiment: in vitro; conditions: human, pooled human liver microsomes
[3] = Metabolic stability in mouse liver microsomes; conditions: pH 7.4
Karpas-422 xenograft = experiment: Efficacy study in Karpas-422 xenograft model; type: in vivo, mice
[4] = system: cryopreserved human hepatocytes; experiment: Fraction of hepatocytes remaining (DAPI cell count) in CYP induction study; type: cell-based; conditions: 48 hours
Description: After completion of the incubation, the cells were washed with DPBS. After washing with DPBS, the cells were fixed using 3.7% p-formaldehyde in DPBS for one hour. The formaldehyde was removed and 0.6 μmol/L DAPI in DPBS was added. The cells were stained by DAPI for 20 minutes and then washed three times with DPBS. Cells were counted using an ArrayScan II (Cellomics, Pittsburgh, Pa.) with a 5× objective lens. Fraction of hepatocytes remaining was calculated using the number of cells found at a treatment condition divided by cells found with the vehicle control.

[5] = Metabolic stability in monkey liver microsomes; conditions: cynomolgus monkey, pH 7.4
CYP3A = experiment: CYP induction in cryopreserved human hepatocytes (mRNA), CYP3A; type: in vitro ADME; conditions: positive control rifampicin
CYP2C9 [6] = experiment: CYP induction in cryopreserved human hepatocytes (mRNA), CYP2C9; type: in vitro ADME; conditions: positive control rifampicin
[7] = Metabolic stability in rat liver microsomes; conditions: pH 7.4
[8] = Metabolic stability in dog liver microsomes; conditions: pH 7.4
CYP2C9 [9] = experiment: in vitro; conditions: human, pooled human liver microsomes, pH 7.4
CYP2B6 = experiment: CYP induction in cryopreserved human hepatocytes (mRNA), CYP2B6; type: in vitro ADME; conditions: positive control phenobarbital
CYP1A [10] = experiment: CYP induction in cryopreserved human hepatocytes (mRNA), CYP1A; type: in vitro ADME; conditions: positive control β-naphthoflavone
CYP3A4/5 [11] = experiment: Time-dependent inactivation (TDI) of CYP3A4/5 in human liver microsomes; type: in vitro ADME; conditions: for inactivation of CYP3A4/5 (in words): using midazolam as probe
[12] = type: in vivo; conditions: oral, BID, up to 28 days, Karpas-422 xenograft mice
CYP2C8 = CYP2C8 (Homo sapiens (Human), UniProt P10632); experiment: Reversible CYP inhibition in pooled human liver microsomes, CYP2C8; conditions: read-out: Reversible inhibition IC50 CYP2C8
[13] = Metabolic stability in human liver microsomes; conditions: for metabolic clearance in human liver microsomes (in words): HLM; for CLint scaled: human, human liver microsomes, pH 7.4
[14] = system: human cytochromes P450 (CYP); experiment: Reversible CYP inhibition in human liver microsomes, overall assessment
CYP2D6 = CYP2D6 (Homo sapiens (Human), UniProt P10635); experiment: Reversible CYP inhibition in pooled human liver microsomes, CYP2D6; conditions: read-out: Reversible inhibition IC50 CYP2D6
EZH2 (PRC2 complex) = EZH2 (PRC2 complex) (Homo sapiens (Human), UniProt Q15910); experiment: PRC2 enzyme assay on peptide substrate (EZH2 peptide v2)
[15] = biological target: wild-type EZH2 (PRC2 complex) (Homo sapiens (Human), UniProt Q15910); experiment: Wild-type PRC2 enzyme assay (WT EZH2)
[16] = pH 7.4, probe testosterone (250 μmol/L), CYP3A4/5, human liver microsomes, read-out: Time-Dependent Inactivation KI

Sequence of CYP2C19 (P33261 whole entry): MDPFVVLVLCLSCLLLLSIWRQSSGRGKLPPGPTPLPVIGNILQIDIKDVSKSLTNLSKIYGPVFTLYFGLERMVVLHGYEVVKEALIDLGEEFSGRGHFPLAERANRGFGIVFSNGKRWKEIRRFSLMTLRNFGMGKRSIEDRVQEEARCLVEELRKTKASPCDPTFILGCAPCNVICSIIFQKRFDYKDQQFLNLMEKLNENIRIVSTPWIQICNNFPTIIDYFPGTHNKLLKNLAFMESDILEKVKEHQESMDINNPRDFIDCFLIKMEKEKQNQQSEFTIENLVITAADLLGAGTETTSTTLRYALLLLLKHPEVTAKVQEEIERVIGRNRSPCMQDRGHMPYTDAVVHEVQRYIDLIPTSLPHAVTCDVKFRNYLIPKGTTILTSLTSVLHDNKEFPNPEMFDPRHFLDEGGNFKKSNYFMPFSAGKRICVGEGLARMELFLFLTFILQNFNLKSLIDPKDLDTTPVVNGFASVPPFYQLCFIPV
Sequence of CYP2D6 (P10635 whole entry): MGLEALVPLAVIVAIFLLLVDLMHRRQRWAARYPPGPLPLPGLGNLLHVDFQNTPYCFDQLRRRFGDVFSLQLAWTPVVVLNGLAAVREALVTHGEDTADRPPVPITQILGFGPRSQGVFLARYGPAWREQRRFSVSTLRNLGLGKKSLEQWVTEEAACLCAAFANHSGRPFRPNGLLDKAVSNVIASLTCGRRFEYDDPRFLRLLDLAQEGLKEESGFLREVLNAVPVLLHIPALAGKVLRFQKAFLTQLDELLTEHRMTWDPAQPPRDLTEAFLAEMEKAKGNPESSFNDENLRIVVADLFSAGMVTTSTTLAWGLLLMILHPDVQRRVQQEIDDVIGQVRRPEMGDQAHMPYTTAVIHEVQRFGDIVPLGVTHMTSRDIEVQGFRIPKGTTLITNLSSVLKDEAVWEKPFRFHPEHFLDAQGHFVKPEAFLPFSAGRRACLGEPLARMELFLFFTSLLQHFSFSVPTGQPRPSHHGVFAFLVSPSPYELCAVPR
Sequence of CYP2C8 (P10632 whole entry): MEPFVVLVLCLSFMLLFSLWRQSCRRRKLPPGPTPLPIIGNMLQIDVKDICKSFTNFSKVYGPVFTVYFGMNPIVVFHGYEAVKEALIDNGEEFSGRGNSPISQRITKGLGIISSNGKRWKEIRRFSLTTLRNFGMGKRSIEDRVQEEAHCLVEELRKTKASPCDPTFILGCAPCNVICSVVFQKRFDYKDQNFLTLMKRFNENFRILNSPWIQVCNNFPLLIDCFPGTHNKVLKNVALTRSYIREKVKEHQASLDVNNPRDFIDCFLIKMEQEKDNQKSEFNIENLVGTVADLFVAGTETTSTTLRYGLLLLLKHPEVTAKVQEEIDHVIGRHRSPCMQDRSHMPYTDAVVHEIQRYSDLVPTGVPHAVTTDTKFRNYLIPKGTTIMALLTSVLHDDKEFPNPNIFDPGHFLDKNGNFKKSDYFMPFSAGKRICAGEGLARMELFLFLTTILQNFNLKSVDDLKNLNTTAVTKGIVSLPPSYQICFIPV
Sequence of EZH2 (PRC2 complex) (Q15910 other isoform, or with tags, fused parts or gaps): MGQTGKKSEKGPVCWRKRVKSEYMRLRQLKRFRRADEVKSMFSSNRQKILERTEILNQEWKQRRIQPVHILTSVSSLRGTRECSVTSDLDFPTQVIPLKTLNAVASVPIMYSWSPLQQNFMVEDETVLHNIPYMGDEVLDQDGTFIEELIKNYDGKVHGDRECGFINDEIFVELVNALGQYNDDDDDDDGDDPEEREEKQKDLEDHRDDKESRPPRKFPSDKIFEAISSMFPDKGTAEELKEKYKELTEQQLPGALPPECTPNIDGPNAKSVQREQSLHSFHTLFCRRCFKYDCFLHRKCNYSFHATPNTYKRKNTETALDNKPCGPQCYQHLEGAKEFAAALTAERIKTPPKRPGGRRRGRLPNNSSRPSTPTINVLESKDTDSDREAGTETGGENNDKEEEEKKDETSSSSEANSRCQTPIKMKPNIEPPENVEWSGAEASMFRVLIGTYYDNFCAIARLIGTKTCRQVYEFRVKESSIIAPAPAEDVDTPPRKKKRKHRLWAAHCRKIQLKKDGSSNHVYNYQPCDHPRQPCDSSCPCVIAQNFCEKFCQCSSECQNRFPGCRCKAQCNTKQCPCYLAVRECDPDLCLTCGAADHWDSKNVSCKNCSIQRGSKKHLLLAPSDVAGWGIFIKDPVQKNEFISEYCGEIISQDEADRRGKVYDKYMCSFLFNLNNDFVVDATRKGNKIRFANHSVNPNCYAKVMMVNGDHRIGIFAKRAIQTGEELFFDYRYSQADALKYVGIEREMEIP
Sequence of EZH2 (PRC2 complex) (O75530 whole entry partner): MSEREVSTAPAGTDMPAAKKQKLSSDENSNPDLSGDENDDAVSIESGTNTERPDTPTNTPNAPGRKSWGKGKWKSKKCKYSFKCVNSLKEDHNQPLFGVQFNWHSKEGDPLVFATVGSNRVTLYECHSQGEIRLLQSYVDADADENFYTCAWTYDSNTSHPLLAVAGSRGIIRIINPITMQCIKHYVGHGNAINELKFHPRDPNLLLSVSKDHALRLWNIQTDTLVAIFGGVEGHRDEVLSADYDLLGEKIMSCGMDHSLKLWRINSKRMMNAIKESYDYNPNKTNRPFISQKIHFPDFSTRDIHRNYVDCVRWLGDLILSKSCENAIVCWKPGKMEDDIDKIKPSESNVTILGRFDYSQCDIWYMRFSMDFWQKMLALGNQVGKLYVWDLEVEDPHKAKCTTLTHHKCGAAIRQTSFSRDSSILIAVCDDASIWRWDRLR
Sequence of EZH2 (PRC2 complex) (Q15022 whole entry partner): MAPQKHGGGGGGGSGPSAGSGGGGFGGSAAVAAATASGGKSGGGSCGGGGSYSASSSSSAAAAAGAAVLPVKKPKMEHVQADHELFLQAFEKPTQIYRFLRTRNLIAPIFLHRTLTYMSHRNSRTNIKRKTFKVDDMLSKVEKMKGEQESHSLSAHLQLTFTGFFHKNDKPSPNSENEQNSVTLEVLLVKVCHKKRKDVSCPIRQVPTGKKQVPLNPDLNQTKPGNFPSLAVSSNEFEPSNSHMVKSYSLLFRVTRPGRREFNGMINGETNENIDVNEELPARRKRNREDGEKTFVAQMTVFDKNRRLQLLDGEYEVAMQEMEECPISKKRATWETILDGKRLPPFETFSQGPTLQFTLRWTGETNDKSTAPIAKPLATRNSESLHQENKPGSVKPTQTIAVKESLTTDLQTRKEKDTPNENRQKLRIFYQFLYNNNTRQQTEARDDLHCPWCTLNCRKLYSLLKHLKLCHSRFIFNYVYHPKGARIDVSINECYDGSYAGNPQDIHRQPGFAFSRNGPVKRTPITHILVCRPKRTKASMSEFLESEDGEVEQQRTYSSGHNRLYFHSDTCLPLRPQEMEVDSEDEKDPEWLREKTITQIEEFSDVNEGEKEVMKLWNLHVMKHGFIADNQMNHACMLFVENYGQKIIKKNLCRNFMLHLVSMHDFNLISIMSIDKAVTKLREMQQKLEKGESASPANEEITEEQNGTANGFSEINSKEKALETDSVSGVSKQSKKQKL
Sequence of EZH2 (PRC2 complex) (Q09028 whole entry partner): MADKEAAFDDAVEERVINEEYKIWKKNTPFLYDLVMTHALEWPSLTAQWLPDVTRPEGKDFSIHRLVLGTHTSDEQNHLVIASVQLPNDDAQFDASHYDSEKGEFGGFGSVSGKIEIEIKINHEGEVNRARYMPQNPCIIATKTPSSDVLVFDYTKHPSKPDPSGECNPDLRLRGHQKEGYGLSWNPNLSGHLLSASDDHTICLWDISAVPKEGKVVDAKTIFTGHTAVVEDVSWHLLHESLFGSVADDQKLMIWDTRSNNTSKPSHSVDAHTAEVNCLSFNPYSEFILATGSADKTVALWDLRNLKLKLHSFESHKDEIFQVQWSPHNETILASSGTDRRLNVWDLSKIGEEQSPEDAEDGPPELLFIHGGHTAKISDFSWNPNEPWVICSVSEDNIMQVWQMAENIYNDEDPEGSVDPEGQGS
Sequence of wild-type EZH2 (PRC2 complex) (Q15910 other isoform, or with tags, fused parts or gaps): as the sequence (Q15910 other isoform, or with tags, fused parts or gaps) above
Sequence of wild-type EZH2 (PRC2 complex) (O75530 whole entry partner): as the sequence (O75530 whole entry partner) above
Sequence of wild-type EZH2 (PRC2 complex) (Q15022 whole entry partner): as the sequence (Q15022 whole entry partner) above
Sequence of wild-type EZH2 (PRC2 complex) (Q09028 whole entry partner): as the sequence (Q09028 whole entry partner) above

| Compound | IC50 (CYP2C19) [µM] | IC50 (CYP1A [1]) [µM] | IC50 (CYP3A4/5 [2]; pH 7.4, probe midazolam) [µM] | IC50 (CYP3A4/5 [2]; pH 7.4, probe testosterone) [µM] | CLint scaled [3] [mL/min/kg] | % Cell Remaining vs. Control ([4]; 1 μM) [%] | % Cell Remaining vs. Control ([4]; 10 μM) [%] | CLint scaled [5] [mL/min/kg] | CYP3A % Positive Control (CYP3A; 1 μM) [%] | CYP3A % Positive Control (CYP3A; 10 μM) [%] | CYP2C9 % Positive Control (CYP2C9 [6]; 1 μM) [%] | CYP2C9 % Positive Control (CYP2C9 [6]; 10 μM) [%] | CLint scaled [7] [mL/min/kg] | CLint scaled [8] [mL/min/kg] | IC50 (CYP2C9 [9]) [µM] | KI (inactivation) (CYP3A4/5 [11]; [16]) [µM] | inactivation of CYP3A4/5 (in words) (CYP3A4/5 [11]) | metabolic clearance in human liver microsomes (in words) [13] | CLint scaled [13] [mL/min/kg] | reversible CYP inhibition (in words) [14] | further results |
| --- | --- | --- | --- | --- | --- | --- | --- | --- | --- | --- | --- | --- | --- | --- | --- | --- | --- | --- | --- | --- | --- |
| CCN(c1cc(-c2ccc(OCCOC)cc2)cc(C(=O)NCc2c(C)cc(C)[nH]c2=O)c1C)[C@H]1CC[C@H](N(C)C)CC1 [Compound 1, N-((4,6-dimethyl-2-oxo-1,2-dihydropyridin-3-yl)methyl)-5-(((trans)-4-(dimethylamino)-cyclohexyl)(ethyl)-amino)-4′-(2-methoxyethoxy)-4-methyl-[1,1′-biphenyl]-3-carboxamide] | 89.6 | > 100 | 40.5 | > 100 | 15.4 | 107.44 | 99.00 | 58.6 | 13.9 | 13.3 | 43.5 | 52.6 | 14.8 | 8.1 | > 100 | 6.4 | time-, concentration-, and NADPH-dependent inactivation of CYP3A4/5 | low metabolic clearance | 10.5 | no significant reversible inhibition | tumors large enough for analysis at day 28 (Karpas-422 xenograft; 125 mg/kg BID x28, p.o.): 5 out of 10; tumors large enough for analysis at day 28 (Karpas-422 xenograft; 250 mg/kg BID x28, p.o.): 1 out of 10; tumors large enough for analysis at day 28 (Karpas-422 xenograft; 500 mg/kg BID x28, p.o.): too small for analysis; anti-tumor effect in Karpas-422 xenograft model (in words) (Karpas-422 xenograft; oral, BID, up to 28 days, 62.5-500 mg/kg): tumor stasis and regression; CYP2B6 % Positive Control (CYP2B6; 1 μM): 18.0%; CYP2B6 % Positive Control (CYP2B6; 10 μM): 26.3%; CYP1A % Positive Control (CYP1A [10]; 1 μM): 2.8%; CYP1A % Positive Control (CYP1A [10]; 10 μM): 3.0%; KI (inactivation) (CYP3A4/5 [11]; human, human liver microsomes, pH 7.4, CYP3A4/5, footnote to ** not given, read-out: Time-Dependent Inactivation KI, second value in brackets marked **): 3.3 µM; tolerability (in words) [12]: well tolerated; IC50 (CYP2C8): > 100 µM |
| CCN(c1cc(C#CCN2CCOCC2)cc(C(=O)NCc2c(C)cc(C)[nH]c2=O)c1C)[C@H]1CC[C@H](N(C)CCOC)CC1 [Compound 2, N-((4,6-dimethyl-2-oxo-1,2-dihydropyridin-3-yl)methyl)-3-(ethyl((trans)-4-((2-methoxyethyl)(methyl)amino)cyclohexyl)amino)-2-methyl-5-(3-morpholinoprop-1-yn-1-yl)benzamide] | > 100 | > 100 | > 100 | > 100 | 17.6 | 124.70 | 120.90 | 32.8 |  |  |  |  | 14.8 | 34.3 | > 100 | 22.3 | time-, concentration-, and NADPH-dependent inactivation of CYP3A4/5 | low metabolic clearance | 8.8 | no significant reversible inhibition | IC50 (CYP2D6): > 100000 nM; IC50 (CYP2C8): > 100 µM |
| CCN(c1cc(C#CC2CCN(C)CC2)cc(C(=O)NCc2c(C)cc(C)[nH]c2=O)c1C)C1CCOCC1 [Compound 105, N-((4,6-Dimethyl-2-oxo-1,2-dihydropyridin-3-yl)methyl)-3-(ethyl(tetrahydro-2H-pyran-4-yl)amino)-2-methyl-5-((1-methylpiperidin-4-yl)ethynyl)benzamide] | 33.6 | > 100 | 9.67 | > 100 | 54.7 | 103.19 | 97.49 | 74.8 | 18.1 | 33.8 | 50.4 | 76.3 | 47.5 | 64.2 | 75.7 | 10.2 | time-, concentration-, and NADPH-dependent inactivation of CYP3A4/5 | low metabolic clearance | 42.1 | potentially significant inhibition of CYP2D6 and CYP3A4 (midazolam) | IC50 (EZH2 (PRC2 complex)): 8.4 nM; IC50 [15]: < 10 nM; CYP2B6 % Positive Control (CYP2B6; 1 μM): 25.5%; CYP2B6 % Positive Control (CYP2B6; 10 μM): 52.2%; CYP1A % Positive Control (CYP1A [10]; 1 μM): 3.0%; CYP1A % Positive Control (CYP1A [10]; 10 μM): 4.4%; IC50 (CYP2D6): 2950 nM |
